Like-named read-outs stand apart in the source and are kept apart here.
Experiments:
[1] = test system: NCI-H69 xenografts (small cell lung cancer); experiment: Antitumor activity in vivo, subcutaneous NCI-H69 xenograft model; design: species or system BALB/c Nude mice
Experimental: The antitumor activity of CDK7_1187 in vivo was evaluated on a subcutaneous xenograft model of the NCl-H69 line (small cell lung cancer, ATCC® HTB-119™) transplanted to BALB/c Nude mice.
NCl-H69 cell line was cultured in RPMI-1640 medium (PanEco, Russia) with enrichment of the basal growth medium with L-glutamine at a concentration of 2 mM (PanEco, Russia) and 10% fetal bovine serum (Gibco, Thermo Fisher Scientific, USA).
The study used 20 BALB/c Nude mice (females) obtained from the Federal State Budgetary Scientific Institution “Federal Research Center Institute of Cytology and Genetics, Siberian Branch of Russian Academy of Sciences” (ICG SB RAS). BALB/c Nude mice were subcutaneously administered into the right lateral side of the body with […] of suspension containing 5×10^6 NCI-H69 tumor cells and Matrigel (Corning® Matrigel® Basement Membrane Matrix) at 1:1 ratio.
Linear dimensions of the tumor were determined using an electronic caliper. Volume of the tumor node was determined by the formula (1):
[formula] • where L and W are large and small diameters of the tumor node, respectively.
The efficacy of test product was measured by the index of tumor growth inhibition (TGI, %) calculated according to the formula (2):
[formula] • where Vc and Vp are mean volumes of the tumor node in the control group and the group of animals that received the test substance, respectively.
After achieving an average tumor volume of 130 mm^3, animals were divided into 2 groups of 10 animals, volume of the tumor node was used as a randomization criterion. The day of the first administration of the product was designated as day 0.
Test substance CDK7_1187 was administered intragastrically at a dose of 6 mg/kg daily, for 21 days. Before each administration, CDK7_1187 was diluted in 5% solution of glucose (Solopharm, Russia) and 0.1% solution of DMSO (Sigma, USA). The control group received a 5% solution of glucose and a 0.1% solution of DMSO in an analogous volume.
Statistical analysis was carried out using the GraphPad Prism 9 software package. Mann-Whitney U test was employed to assess the significance of differences when comparing the volumes of tumor nodes. Differences were identified as significant if p<0.05.

[2] = Pharmacokinetics in mice plasma following oral administration; type: in vivo, CD-1 mice; conditions: dose 10 mg/kg; for F: absolute bioavailability, mice; for AUC(0-t) / Cmax / Tmax / half-life: male, CD-1, mouse, mice plasma; for half-life: read-out: T½ (converted)
Experimental: (§1) Pharmacokinetic studies of the compounds were carried out on CD-1 mice, males, aged about 8 weeks, weighing 16-29 g. The animals were given a single oral (PO) administration (intragastrically) at a dose of 10 mg/kg in a formulation in the form of a 0.2% solution of hydroxypropyl methylcellulose (HPMC) in a 5% aqueous solution of glucose and a single IV-bolus administration (intravenously) at a dose of 1.0 mg/kg for 1277 and at a dose of 2.0 mg/kg for substances CDK7_1187, CDK7_1225, CDK7_1229 and CDK7_1276 in a formulation comprising 0.2% DMSO in 5% aqueous solution of glucose.
(§2) For each substance, 21-30 animals were used for each dose of PO and IV administration. All mice were weighed and randomized before dosing.
(§3) 3-5 animals were used for each time point. Each animal was sampled at one time point. At least 12 h before the start of the experiment, the animals were deprived of food while maintaining free access to water.
(§4) Animals from the PO and IV groups were subjected to blood sampling before administering the substance and after 0.5, 2, 4, 8, 12 and 24 h.
(§5) Blood was collected by cardiac puncture using the closed method. Blood was collected in a volume of 0.2 ml into polypropylene tubes comprising 20 μl of 5% EDTA. Blood plasma was separated by centrifugation at 10000 rpm for 10 minutes at 4±2° C. and transferred into clean labeled tubes.
(§6) Test blood plasma samples of mice from the experimental groups were obtained in a volume of 50 μl. Afterwards, […] of a solution of internal standard (tolbutamide (Sigma, T0891)) prepared in acetonitrile, at a concentration of 50 ng/ml, pre-cooled in the refrigerator at 2-8° C., was added to the samples, stirred in a vortex mixer (G560E, Scientific Industries) for 10 seconds and incubated at 4° C. for 15 minutes for protein precipitation. Samples were then centrifuged (5417R centrifuge, Eppendorf) at 1500 g for 10 minutes while cooling to 4° C. 150 μl of the supernatant were transferred to a 96-well plate for HPLC-MS/MS analysis. Quantitative determination of test compounds in blood plasma was carried out by absolute calibration method. The calibration curve was generated by analyzing plasma samples with supplementations of known amounts of the standard of the compound being determined. The lower limit of the quantitative determination of test compounds in blood plasma was 1 ng/ml, the analytical range of the technique was 1 ng/ml to 2000 ng/ml. The technique was partially validated in terms of selectivity, accuracy, precision, linearity, matrix effects, stability.
(§7) The Qtrap 5500 mass spectrometer (AB Sciex) in combination with the Agilent 1290 Infinity II HPLC liquid chromatograph (Agilent) and a cooling multisampler (Agilent 1290 Infinity II Multisampler G7167B) was used as an HPLC-MS/MS system. Chromatographic analysis was performed on a C18 reversed-phase HPLC column (YMC-Triart C18, 50*2 mm, 1.9 μm, YMC CO. Ltd). The mobile phase used was used a mixture of deionized water and acetonitrile supplemented with 0.1% formic acid in gradient mode, flow rate: 0.5 ml/min, column T=40° C., autosampler T=8° C., analysis time: 2.8 min. Mass spectrometric detection was performed in multiple reaction monitoring (MRM) mode. Precursor ions, fragment ions and collision energies for each substance were selected experimentally. Two Q1/Q3 transitions were used to record MRM chromatograms of the analyte and internal standard; one of transitions was used for quantitative calculations, the other one was used to confirm that the […] corresponds to a given substance. Based on the results of HPLC-MS/MS analysis of calibration samples using the Analyst 1.6.3 software, the calibration dependence of areas of chromatographic analyte peaks normalized to the signal of the internal standard on the concentration of the analyte was built.
(§8) Pharmacokinetic analysis was performed by non-compartmental method using the Phoenix WinNonlin 6.3 software package. […]

[3] = Pharmacokinetics in mice plasma following intravenous administration; type: in vivo, CD-1 mice; conditions: male, CD-1, mouse; for half-life: read-out: T½ (converted); for Vd: read-out: Vss
Experimental: as §1, §2, §3, §4, §5, §6, §7, §8

Row | Structure (SMILES) | F [2] | AUC(0-t) [2] | Cmax [2] | Tmax [2] | half-life [2] | AUC(0-t) ([3]; dose 2 mg/kg) | clearance ([3]; dose 2 mg/kg) | half-life ([3]; dose 2 mg/kg) | Vd ([3]; dose 2 mg/kg) | tumor volume versus control group ([1]; 6 mg/kg daily, days 17 and 21, Mann-Whitney p<0.05) | index of tumor growth inhibition (TGI) ([1]; BALB/c Nude mice, 6 mg/kg intragastrically daily for 21 days, end of the observation period) | TGI index ([1]; Day 9, intragastrically 6 mg/kg daily) | TGI index ([1]; Day 13, intragastrically 6 mg/kg daily) | TGI index ([1]; Day 17, intragastrically 6 mg/kg daily) | TGI index ([1]; Day 21, intragastrically 6 mg/kg daily) | AUC(0-t) ([3]; dose 1 mg/kg) | clearance ([3]; dose 1 mg/kg) | half-life ([3]; dose 1 mg/kg) | Vd ([3]; dose 1 mg/kg)
1 | CN1CCCc2c(-c3nc(N[C@H]4CCC(C)(C)NC4)ncc3C(F)(F)F)c[nH]c2C1=O [CDK7_1187, 3-(2-{[(3S)-6,6-dimethylpiperidin-3-yl]amino}-5-(trifluoromethyl)py-rimidin-4-yl)-7-methyl-1H,4H,5H,6H,7H, 8H-pyrrolo[2,3-c]azepin-8-one] | 72.7% | 1160 ng·h/mL | 309 ng/mL | 0.5 h | 1.7 h | 314 ng·h/mL | 103 mL/min/kg | 1.7 h | 10.1 L/kg | statistically significantly less | 48% | 10% | 36% | 40% | 48% | – | – | – | –
2 | O=C1c2[nH]cc(-c3nc(N[C@H]4CCC5(CC5)NC4)ncc3C(F)(F)F)c2CCCN1C1CC1 [CDK7_1276, 3-(2-{[(6S)-4-azaspiro[2.5]octan-6-yl]amino}-5-(trifluoromethyl)py-rimidin-4-yl)-7-cyclopropyl-1H,4H,5H,6H,7H, 8H-pyrrolo[2,3-c]azepin-8-one] | 116% | 7980 ng·h/mL | 1510 ng/mL | 0.5 h | 2 h | 1380 ng·h/mL | 21.5 mL/min/kg | 4.15 h | 6.52 L/kg | – | – | – | – | – | – | – | – | – | –
3 | CC(C)N1CCCc2c(-c3nc(N[C@H]4CCC5(CC5)NC4)ncc3C(F)(F)F)c[nH]c2C1=O [CDK7_1277, 3-(2-{[(6S)-4-azaspiro[2.5]octan-6-yl]amino}-5-(trifluoromethyl)py-rimidin-4-yl)-7-(propan-2-yl)-1H,4H,5H,6H,7H, 8H-pyrrolo[2,3-c]azepin-8-one] | 85.8% | 3110 ng·h/mL | 893 ng/mL | 0.5 h | 3.8 h | – | – | – | – | – | – | – | – | – | – | 363 ng·h/mL | 45 mL/min/kg | 2.1 h | 6.89 L/kg

More lines, main results first:

Row | F [2] | AUC(0-t) [2] | Cmax [2] | Tmax [2] | half-life [2] | AUC(0-t) ([3]; dose 2 mg/kg) | clearance ([3]; dose 2 mg/kg) | half-life ([3]; dose 2 mg/kg) | Vd ([3]; dose 2 mg/kg) | Structure (SMILES) | tumor volume versus control group ([1]; 6 mg/kg daily, days 17 and 21, Mann-Whitney p<0.05) | index of tumor growth inhibition (TGI) ([1]; BALB/c Nude mice, 6 mg/kg intragastrically daily for 21 days, end of the observation period) | TGI index ([1]; Day 9, intragastrically 6 mg/kg daily) | TGI index ([1]; Day 13, intragastrically 6 mg/kg daily) | TGI index ([1]; Day 17, intragastrically 6 mg/kg daily) | TGI index ([1]; Day 21, intragastrically 6 mg/kg daily) | AUC(0-t) ([3]; dose 1 mg/kg) | clearance ([3]; dose 1 mg/kg) | half-life ([3]; dose 1 mg/kg) | Vd ([3]; dose 1 mg/kg)
4 | 102% | 3540 ng·h/mL | 712 ng/mL | 2 h | 1.9 h | 691 ng·h/mL | 48 mL/min/kg | 1.8 h | 6.3 L/kg | CC1(C)CC[C@H](Nc2ncc(C(F)(F)F)c(-c3c[nH]c4c3CCCN(C3CC3)C4=O)n2)CN1 [CDK7_1225, 7-cyclopropyl-3-(2-{[(3S)-6,6-dimethylpiperidin-3-yl]amino}-5-(trifluoromethyl)py-rimidin-4-yl)-1H,4H,5H,6H,7H, 8H-pyrrolo[2,3-c]azepin-8-one] | – | – | – | – | – | – | – | – | – | –
5 | 102% | 5790 ng·h/mL | 1070 ng/mL | 0.5 h | 2.5 h | 1140 ng·h/mL | 29 mL/min/kg | 2 h | 4.17 L/kg | CC(C)N1CCCc2c(-c3nc(N[C@H]4CCC(C)(C)NC4)ncc3C(F)(F)F)c[nH]c2C1=O [CDK7_1229, 3-(2-{[(3S)-6,6-dimethylpiperidin-3-yl]amino}-5-(trifluoromethyl)py-rimidin-4-yl)-7-(propan-2-yl)-1H,4H,5H,6H,7H, 8H-pyrrolo[2,3-c]azepin-8-one] | – | – | – | – | – | – | – | – | – | –

— patent US20260137698A1, “CYCLIN-DEPENDENT KINASE 7 INHIBITORS” (JOINT STOCK COMPANY «BIOCAD», priority 2022, published 2026)
